The values below come from US20230091225A1, “Bifunctional chimeric heterocyclic compounds for targeted degradation of androgen receptors and use thereof” (HINOVA PHARMACEUTICALS INC., priority 2019, published 2023).

This test concerns the target T1, androgen receptor (AR) (Homo sapiens, UniProt P10275).
T1 sequence (P10275 1-920): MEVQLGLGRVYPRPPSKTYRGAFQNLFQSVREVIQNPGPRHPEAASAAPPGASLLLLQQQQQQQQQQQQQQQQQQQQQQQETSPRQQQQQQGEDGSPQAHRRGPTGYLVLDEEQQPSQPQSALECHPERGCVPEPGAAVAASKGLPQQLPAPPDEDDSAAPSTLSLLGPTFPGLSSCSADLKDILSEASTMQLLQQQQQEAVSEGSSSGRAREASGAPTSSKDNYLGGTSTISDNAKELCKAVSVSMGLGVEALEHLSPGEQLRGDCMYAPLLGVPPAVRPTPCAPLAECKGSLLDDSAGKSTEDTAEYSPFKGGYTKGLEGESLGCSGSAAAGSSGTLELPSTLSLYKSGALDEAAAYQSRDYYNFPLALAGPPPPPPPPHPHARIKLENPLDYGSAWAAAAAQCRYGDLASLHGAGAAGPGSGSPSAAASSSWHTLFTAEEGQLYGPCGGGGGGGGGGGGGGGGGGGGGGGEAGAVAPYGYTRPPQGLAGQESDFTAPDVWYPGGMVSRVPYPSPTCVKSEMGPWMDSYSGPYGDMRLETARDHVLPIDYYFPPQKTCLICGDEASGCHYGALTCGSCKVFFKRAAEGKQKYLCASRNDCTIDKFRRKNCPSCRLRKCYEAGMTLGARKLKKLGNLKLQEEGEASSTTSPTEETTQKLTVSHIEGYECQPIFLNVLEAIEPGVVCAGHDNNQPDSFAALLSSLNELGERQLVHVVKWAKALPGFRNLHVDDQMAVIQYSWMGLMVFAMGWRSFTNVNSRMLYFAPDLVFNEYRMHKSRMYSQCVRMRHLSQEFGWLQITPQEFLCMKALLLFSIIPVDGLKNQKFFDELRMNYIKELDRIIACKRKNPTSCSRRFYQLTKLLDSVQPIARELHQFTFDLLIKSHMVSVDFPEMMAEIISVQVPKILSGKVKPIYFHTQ
In words: Degradation of androgen receptor (AR) protein in VCaP cells by ELISA. It counts as cell-based. The following applies: AR degradation, VCaP cells, 16 h, ELISA, Table 3-1; for DC50: read-out: DC50; for Dmax: VCaP, read-out: Dmax (%). On the technique in general: ELISA stands for enzyme-linked immunosorbent assay.

The term DC50 denotes the concentration giving 50% degradation. Consider `CC1(C)[C@H](Oc2ccc(C#N)c(Cl)c2)C(C)(C)[C@H]1N1Cc2nc(C#CC3CCC(N4CCC5(CCN(c6cc7c(cc6F)C(=O)N(C6CCC(=O)NC6=O)C7=O)C5)C4)CC3)ccc2C1=O` (stereo partly drawn) [Compound 366, 2-Chloro-4-((1r,3r)-3-(2-((4-(7-(2-(2,6-dioxopiperidin-3-yl)-6-fluoro-1,3-dioxoisoindolin-5-yl)-2,7-diazaspiro[4.4]nonan-2-yl)cyclohexyl)ethynyl)-5-oxo-5,7-dihydro-6H-pyrrolo[3,4-b]pyridin-6-yl)-2,2,4,4-tetramethylcyclobutoxy) benzonitrile], for which the “Dmax (%)” value is on record as “++++ (>80%)” and the DC50 was under 10 nM.

For the molecule `CC1(C)[C@H](Oc2ccc(C#N)c(Cl)c2)C(C)(C)[C@H]1N1Cc2nc(C#CC3CCC(N4CCC5(CCN(c6cc7c(cc6F)C(=O)N(C6CCC(=O)NC6=O)C7=O)C5)C4)CC3)ccc2C1=O` (stereo partly drawn) [Compound 367, 2-Chloro-4-((1r,3r)-3-(2-((4-(7-(2-(2,6-dioxopiperidin-3-yl)-6-fluoro-1,3-dioxoisoindolin-5-yl)-2,7-diazaspiro[4.4]nonan-2-yl)cyclohexyl)ethynyl)-5-oxo-5,7-dihydro-6H-pyrrolo[3,4-b]pyridin-6-yl)-2,2,4,4-tetramethylcyclobutoxy) benzonitrile], the “Dmax (%)” value is “++ (60%-40%)” and the DC50 lay in the range of 100 to 300 nM.

What is called Dmax is the greatest extent of degradation seen. Regarding `CC1(C)[C@H](Oc2ccc(C#N)c(Cl)c2)C(C)(C)[C@H]1N1Cc2nc(C#CC3CCC(N4CC5(CCN(c6ccc7c(c6)C(=O)N(C6CCC(=O)NC6=O)C7=O)C5)C4)CC3)ccc2C1=O` (stereo partly drawn) [Compound 368, 2-Chloro-4-((1r,3r)-3-(2-((4-(6-(2-(2,6-dioxopiperidin-3-yl)-1,3-dioxoisoindolin-5-yl)-2,6-diazaspiro[3.4]octane-2-yl)cyclohexyl)ethynyl)-5-oxo-5,7-dihydro-pyrrolo[3,4-b]pyridin-6-yl)-2,2,4,4-tetramethylcyclobutoxy) benzonitrile], the DC50 fell in the range of 100 to 300 nM and the Dmax lay within 40 to 60%.

With `CC1(C)[C@H](Oc2ccc(C#N)c(Cl)c2)C(C)(C)[C@H]1N1Cc2nc(C#CC3CCC(N4CC5(CCN(c6ccc7c(c6)C(=O)N(C6CCC(=O)NC6=O)C7=O)C5)C4)CC3)ccc2C1=O` (stereo partly drawn) [Compound 369, 2-Chloro-4-((1r,3r)-3-(2-((4-(6-(2-(2,6-dioxopiperidin-3-yl)-1,3-dioxoisoindolin-5-yl)-2,6-diazaspiro[3.4]octane-2-yl)cyclohexyl)ethynyl)-5-oxo-5,7-dihydro-pyrrolo[3,4-b]pyridin-6-yl)-2,2,4,4-tetramethylcyclobutoxy) benzonitrile], the “Dmax (%)” value is listed as “+++ (80%-60%)” and the DC50 lay within 10 to 100 nM.

In the case of `CC1(C)[C@H](Oc2ccc(C#N)c(Cl)c2)C(C)(C)[C@H]1N1Cc2nc(C#CC3CCC(N4CC5(CCN(c6cc7c(cc6F)C(=O)N(C6CCC(=O)NC6=O)C7=O)C5)C4)CC3)ccc2C1=O` (stereo partly drawn) [Compound 370], the “Dmax (%)” value is on record as “++ (60%-40%)” and the DC50 lay within 100 to 300 nM.

Regarding `CC1(C)[C@H](Oc2ccc(C#N)c(Cl)c2)C(C)(C)[C@H]1N1Cc2nc(C#CC3CCC(N4CC5(CCN(c6cc7c(cc6F)C(=O)N(C6CCC(=O)NC6=O)C7=O)C5)C4)CC3)ccc2C1=O` (stereo partly drawn) [Compound 371], the “Dmax (%)” value is reported as “++++ (>80%)” and the DC50 lay within 10 to 100 nM.

Take `CC1(C)[C@H](Oc2ccc(C#N)c(Cl)c2)C(C)(C)[C@H]1N1Cc2nc(C#CC3CCC(N4CCC5(CN(c6ccc7c(c6)C(=O)N(C6CCC(=O)NC6=O)C7=O)C5)C4)CC3)ccc2C1=O` (stereo partly drawn) [Compound 372]: the DC50 was over 300 nM and the maximal degradation (Dmax) is under 40%.

With `CC1(C)[C@H](Oc2ccc(C#N)c(Cl)c2)C(C)(C)[C@H]1N1Cc2nc(C#CC3CCC(N4CCC5(CN(c6ccc7c(c6)C(=O)N(C6CCC(=O)NC6=O)C7=O)C5)C4)CC3)ccc2C1=O` (stereo partly drawn) [Compound 373], the DC50 was over 300 nM.

In the case of `CC1(C)[C@H](Oc2ccc(C#N)c(Cl)c2)C(C)(C)[C@H]1N1Cc2nc(C#CC3CCC(N4CCC5(CN(c6cc7c(cc6F)C(=O)N(C6CCC(=O)NC6=O)C7=O)C5)C4)CC3)ccc2C1=O` (stereo partly drawn) [Compound 374], the DC50 is under 10 nM and the Dmax is over 80%.

As for `CC1(C)[C@H](Oc2ccc(C#N)c(Cl)c2)C(C)(C)[C@H]1N1Cc2nc(C#CC3CCC(N4CCC5(CN(c6cc7c(cc6F)C(=O)N(C6CCC(=O)NC6=O)C7=O)C5)C4)CC3)ccc2C1=O` (stereo partly drawn) [Compound 375], the 50% degradation concentration (DC50) was under 10 nM.

On to `CC1(C)[C@H](Oc2ccc(C#N)c(Cl)c2)C(C)(C)[C@H]1N1Cc2nc(C#CC3CCC(N4CC5(CCN(c6ccc7c(c6)C(=O)N(C6CCC(=O)NC6=O)C7=O)CC5)C4)CC3)ccc2C1=O` (stereo partly drawn) [Compound 376, 2-Chloro-4-((1r,3r)-3-(2-((4-(7-(2-(2,6-dioxopiperidin-3-yl)-1,3-dioxoisoindolin-5-yl)-2,7-diazaspiro[3.5]nonan-2-yl)cyclohexyl)ethynyl)-S-oxo-5,7-dihydro-pyrrolo[3,4-b]pyridin-6-yl)-2,2,4,4-tetramethylcyclobutoxy) benzonitrile], for which the “Dmax (%)” value is “++ (60%-40%)” and the DC50 was over 300 nM.

`CC1(C)[C@H](Oc2ccc(C#N)c(Cl)c2)C(C)(C)[C@H]1N1Cc2nc(C#CC3CCC(N4CC5(CCN(c6ccc7c(c6)C(=O)N(C6CCC(=O)NC6=O)C7=O)CC5)C4)CC3)ccc2C1=O` (stereo partly drawn) [Compound 377, 2-Chloro-4-((1r,3r)-3-(2-((4-(7-(2-(2,6-dioxopiperidin-3-yl)-1,3-dioxoisoindolin-5-yl)-2,7-diazaspiro[3.5]nonan-2-yl)cyclohexyl)ethynyl)-5-oxo-5,7-dihydro-pyrrolo[3,4-b]pyridin-6-yl)-2,2,4,4-tetramethylcyclobutoxy) benzonitrile]: the “Dmax (%)” value is given as “++++ (>80%)” and the DC50 is under 10 nM.

Turning to `CC1(C)[C@H](Oc2ccc(C#N)c(Cl)c2)C(C)(C)[C@H]1N1Cc2nc(C#CC3CCC(N4CC5(CCN(c6cc7c(cc6F)C(=O)N(C6CCC(=O)NC6=O)C7=O)CC5)C4)CC3)ccc2C1=O` (stereo partly drawn) [Compound 378, 2-Chloro-4-((1 r,3r)-3-(2-((4-(7-(2-(2,6-dioxopiperidin-3-yl)-6-fluoro-1,3-dioxoisoindolin-5-yl)-2,7-diazaspiro[3.5]nonan-2-yl)cyclohexyl)ethynyl)-5-oxo-5,7-dihydro-pyrrolo[3,4-b]pyridin-6-yl)-2,2,4,4-tetramethylcyclobutoxy) benzonitrile], the “Dmax (%)” value is on record as “+ (<40%)” and the DC50 is over 300 nM.

Turning to `CC1(C)[C@H](Oc2ccc(C#N)c(Cl)c2)C(C)(C)[C@H]1N1Cc2nc(C#CC3CCC(N4CC5(CCN(c6cc7c(cc6F)C(=O)N(C6CCC(=O)NC6=O)C7=O)CC5)C4)CC3)ccc2C1=O` (stereo partly drawn) [Compound 379, 2-Chloro-4-((1r,3r)-3-(2-((4-(7-(2-(2,6-dioxopiperidin-3-yl)-6-fluoro-1,3-dioxoisoindolin-5-yl)-2,7-diazaspiro[3.5]nonan-2-yl)cyclohexyl)ethynyl)-5-oxo-5,7-dihydro-pyrrolo[3,4-b]pyridin-6-yl)-2,2,4,4-tetramethylcyclobutoxy) benzonitrile], the “Dmax (%)” value is on record as “++++ (>80%)” and the DC50 lay in the range of 10 to 100 nM.

Regarding `CC1(C)[C@H](Oc2ccc(C#N)c(Cl)c2)C(C)(C)[C@H]1N1Cc2nc(C#C[C@H]3CC[C@H](N4CCN(c5cc6c(cc5F)C(=O)N(C5CCC(=O)NC5=O)C6=O)CC4)CC3)cnc2C1=O` (stereo partly drawn) [Compound 380], the DC50 was 10 to 100 nM and the Dmax was in the range of 60 to 80%.

Regarding `CC1(C)[C@H](Oc2ccc(C#N)c(Cl)c2)C(C)(C)[C@H]1N1Cc2nc(C#C[C@H]3CC[C@H](N4CCN(c5ccc6c(c5)C(=O)N(C5CCC(=O)NC5=O)C6=O)CC4)CC3)cnc2C1=O` (stereo partly drawn) [Compound 381], the DC50 was in the range of 10 to 100 nM and the Dmax was over 80%.

Regarding `CC1(C)[C@H](Oc2ccc(C#N)c(Cl)c2)C(C)(C)[C@H]1N1Cc2nc(N3CCC(CN4CCN(c5cc6c(cc5F)C(=O)N(C5CCC(=O)NC5=O)C6=O)CC4)CC3)ncc2C1=O` (stereo partly drawn) [Compound 382], the DC50 lay in the range of 10 to 100 nM and the Dmax is over 80%.

Consider `CC1(C)[C@H](Oc2ccc(C#N)c(Cl)c2)C(C)(C)[C@H]1N1Cc2nc(N3CCC(CN4CCN(c5ccc6c(c5)C(=O)N(C5CCC(=O)NC5=O)C6=O)CC4)CC3)ncc2C1=O` (stereo partly drawn) [Compound 383], for which the DC50 lay within 10 to 100 nM and the Dmax is over 80%.

On to `CC1(C)[C@H](Oc2ccc(C#N)c(Cl)c2)C(C)(C)[C@H]1N1Cc2nc(N3CCC(CN4CCN(c5cc6c(cc5F)C(=O)N(C5CCC(=O)NC5=O)C6=O)CC4)CC3)cnc2C1=O` (stereo partly drawn) [Compound 384], for which the DC50 is under 10 nM and the Dmax lay within 60 to 80%.
